These are literature values, as cited in US20020102309A1, “CONTROLLED RELEASE FORMULATION FOR ADMINISTRATION OF AN ANTI-INFLAMMATORY NAPHTHALENE DERIVATIVE” (priority 1999, published 2002).

The subject of this series is patients with osteoarthritis or rheumatoid arthritis.

Take `COc1ccc2cc(CCC(C)=O)ccc2c1` [nabumetone, 4-(6′-methoxy-2′-naphthyl)butan-2-20 one]: the “duodenal ulcer, gastric ulcer, and gastrointestinal bleeding, patients taking the drug” value (literature (Pisko et al. 1987 and others)) was “less than 1 % of patients”. For the same molecule, under “patients with osteoarthritis or rheumatoid arthritis, Dahl 1993”, the “ulcers occurred, treated patients” value is listed as 0.03 % of patients.
